The test system of data set [1] is A549 cancer cells (EGFR-mutated lung cancer cells). The data set is described as follows: MTT test (cell viability) on A549 cancer cells. It counts as cell-based. As for the experimental part: (§1) A fixed number (7×10^4 cells/dish) of HaCaT cells (human skin keratinocytes) were seeded in each well of a multi-well plate (24 wells). […] MTT (3-(4,5-dimethylthiazol-2-yl)-2,5-diphenyltetrazolium bromide and 300λ bromide-3-(4,5-dimethyl-2-thiazole)-2,5-diphenyltetrazolium) were added and 1 hour later, the supernatant was removed, DMSO was added and the resultant was shook. 200 λ/well of liquid was extracted and added into another multi-well plate (96 wells). ELISA was used to measure the absorbance value (OD570, optical density 570 nm) and calculate the cell cell viability. The experiment was repeated 3 times.
(§2) The effect of EGFR-TKI alone and the simultaneous administration of a β-1 adrenergic receptor antagonist and an EGFR-TKI on cancer cells was examined.
(§3) The effects on HaCaT cells as well as A549 cancer cells was examined.

A further data set in a line: in vitro. To be noted: human. As for the experimental part: as §1
(§4) The MTT test was carried out to examine the effect of β-1 adrenergic receptor antagonists on epithelial cells.
(§5) The MTT test was carried out to examine the effect of first administering β-1 adrenergic receptor antagonist followed by EGFR-TKI on epithelial cells.
(§6) A MTT test was conducted to examine the effect of simultaneously administering a β-1 adrenergic receptor antagonist and an EGFR-TKI on epithelial cells. […] Referring to FIG. 4, FIG. 4 is a schematic diagram showing the c epithelial cell viability after simultaneously contacting an EGFR-TKI and a β-1 adrenergic receptor antagonist with normal epithelial cells.
as §3

For data set [2], the system named is PC9 cancer cell (EGFR-mutated cancer cell). The conditions noted are these: afatinib and betaxolol administered simultaneously. On the procedure:
as §1, §2

Another data set deals with EGFRI-induced rosacea. The conditions noted are these: 0.25% (w/w) topical. On the procedure: (§7) Patients with EGFR-TKI or anti-EGFR monoclonal antibodies induced epithelial cell damage, for example, rosacea or papulopustular rash, were recruited. A composition comprising β-1 adrenergic receptor antagonist was formulated for topical use, and was administered to recruited patients to observe its therapeutic effect.

The test system of data set [3] is EGFR monoclonal antibody-induced papulopustular rash. To be noted: 0.25% (w/w) topical, day 30 of treatment. As for the experimental part:
as §7

Data set [4] deals with HaCaT cells (human skin keratinocytes). Put plainly: in vitro. As for the experimental part:
as §1, §4, §5, §6, §3

By viability is commonly meant a read-out of living cells in per cent, often relative to untreated cells. Regarding `CN(C)C/C=C/C(=O)Nc1cc2c(Nc3ccc(F)c(Cl)c3)ncnc2cc1O[C@H]1CCOC1` [Afatinib, afatinib], in data set [1] (Homo sapiens, A549), the viability at 1 µM stood at 101%, the viability at 2.5 µM is 100%, the viability at 5 µM amounted to 85.2% and the viability at 10 µM is 73.4%. In data set [1] (Homo sapiens, A549), the viability at 20 µM was 69.1% and the viability at 50 µM was determined as 26.4%. For the same compound, in “in vitro”, the viability at 24 h, 0.1 μM turned out to be 90.6%; the viability at 24 h, 0.5 μM is 89.8%; the viability at 24 h, 1 μM amounted to 87.2%; the viability at 24 h, 2.5 μM turned out to be 64.1%. The viability at 24 h, 5 μM in “in vitro” amounted to 34.8%.

As for `CC(C)NCC(O)COc1ccc(CCOCC2CC2)cc1` (centres unmarked) [Betaxolol, betaxolol], the “inhibitory effect and cytotoxicity on PC9 compared with afatinib only” value in data set [2] is “inhibitory effect is better and cytotoxicity is higher”. The “inhibitory effect and cytotoxicity on A549 compared with afatinib only” value in data set [1] (afatinib and betaxolol together) was “inhibitory effect was better and cytotoxicity is higher”. Besides, the “A549 cancer cell viability, betaxolol only” value in data set [1] (cells only in contact with betaxolol) came to 100%. Further, the “improvement of osimertinib-induced rosacea” value in the data set with EGFRI-induced rosacea (4th day of treatment) was “significantly improved”. The “improvement of rosacea (FIG. 12)” value in the data set on EGFRI-induced rosacea (7th day of treatment) was “improved significantly”. In addition, the “improvement of afatinib-induced rosacea” value in the data set on EGFRI-induced rosacea (14th day of treatment compared to the 1st day) is “significantly improved”. In addition, in data set [3], the “improvement of papules and pustules of Cetuximab-induced papulopustular rash” value is “significantly improved”. Also, the “HaCaT cell viability compared with afatinib only” value in data set [4] (betaxolol and afatinib added simultaneously, 24 hours) was “much improved”. The “effect on cell viability of normal epithelial cells (in words)” value in data set [4] (betaxolol only, up to 100 μM) is reported as “basically does not affect the cell viability”. For the same compound, in “in vitro” (Cell viability (%)), the viability at 24 h, 10 μM was 92.8%; the viability at 24 h, 20 μM is 91.3%; the viability at 24 h, 40 μM worked out at 91.4%; the viability at 24 h, 80 μM turned out to be 90.1%. In “in vitro” (Cell viability (%)), the viability at 24 h, 100 μM was found to be 88.1%. For the same compound, the viability at 24 h in “in vitro” (HaCaT cell viability, β-1 adrenergic receptor antagonist only) came out at 100%.

Regarding `CC(C)(C)NC[C@H](O)COc1nsnc1N1CCOCC1` [timolol, Timolol], the “A549 cancer cell viability (change, in words)” value in data set [1] (timolol and afatinib simultaneously) is reported as “did not change significantly”; in data set [1] (timolol increased to 50 μM, with afatinib), “also increased”. The “HaCaT cell viability compared with afatinib only” value in data set [4] (afatinib concentration fixed, timolol concentration adjusted) was “significantly decreased”.

The values above are taken from US20230248671A1, “USE OF BETA-1 ADRENERGIC RECEPTOR ANTAGONIST FOR PREPARING COMPOSITIONS FOR REDUCING EPITHELIAL CELL DAMAGE INDUCED BY EPIDERMAL GROWTH FACTOR RECEPTOR INHIBITORS AND INHIBITING CANCER CELLS” (CHANG GUNG MEMORIAL HOSPITAL, LINKOU, priority 2020, published 2023).
